pEC50: −log10 of the molar value.

What is called viability is a read-out of living cells in per cent, often relative to untreated cells. The term pEC50 denotes −log10 of the EC50, conventionally taken in molar units. Broadly, the CC50 is the concentration at which the toxic effect on the cells reaches its halfway point.

In one data set the test system is luciferase reporter ZIKV. The data set can be described thus: luciferase-based ZIKV reporter assay in Huh7 cells. The conditions noted are these: Zika virus, Huh-7, 72 h, read-out: ZIKV Reporter Assay Inhibition (%) at 10 µM. In kind it is cell-based. How it is done:
(§1) In the current study, we continued to use our previously reported luciferase-based ZIKV reporter assay as a primary antiviral screening, by which newly synthesized compounds were tested (at 10 µM) along with NITD008 (Figure 1, at 1 µM), a flavivirus RNA-dependent RNA polymerase (RdRp) inhibitor, and NSC 12155 (Figure 1, at 10 µM), a flavivirus NS5 methyltransferase (MTase) inhibitor, as reference compounds (Table 1). […] For active compounds (>60% titer-reduction), dose-response experiments were performed to determine EC50 (half maximal effective concentration, a concentration that is needed to cause half of the maximum possible pharmacological effect) and CC50 (half cytotoxic concentration, a concentration that is required to reduce cell viability by 50%) values. For selected compounds, EC50 values in the reporter assay were also measured.
(§2) The ZIKV reporter assay and titer-reduction assay were performed as previously reported. Briefly, Huh7 cells (1.5 × 10^4) were seeded in a 96-well plate and inoculated with a luciferase reporter ZIKV (MOI=0.2). After two hours, the cells were treated with medium containing the compound (10 µM). After 3 days post-infection, the cells were lysed, the Nanoluc signal was detected using the Nano-Glo® luciferase assay (Promega), then measured using a Neo 2 plate reader (BioTek, Winooski, VT, USA). For titer-reduction assays, 1.5 × 10^5 Huh7 cell were seeded in a 24-well plate. Next day, the cells were inoculated with ZIKV for two hours. The inoculum was replaced with compound-containing medium (8.5 µM) and incubated for 3 days. Supernatants were collected and viral titers were estimated by plaque assay.

Data set [1] can be described thus: Cell viability (CC50) assay, MTS-based. Particulars: human, 3 days; for viability at 3 days, 10 µM: 10 µM compound, Huh7 cells, read-out: ZIKV Reporter Assay Viability (%) at 10 µM; for CC50 at 3 days: non-infected Huh7 cells, read-out: CC50. How it is done: as §1
The cell viability assay was performed in Huh7 cells as previously reported. Briefly, non-infected Huh7 cells were treated with the testing compounds for 3 days. Viability was measured by absorbance at […] using the MTS-based tetrazolium reduction CellTiter 96 Aqueous Non-Radioactive cell proliferation assay (Promega).
On the technique in general: Reporter assays use an easily measured gene product as a stand-in for the process of interest.

For a further data set, the system named is ZIKV. Briefly: ZIKV titer reduction assay (plaque assay of supernatants) in Huh7 cells. In kind it is cell-based. Particulars: Zika virus, Huh7 cells; for inhibition at 8.5 µM: Huh-7, 72 h, 8.5 µM compound, 3 days, read-out: Titer Reduction Assay % at 8.5 µM; for pEC50: Huh-7, read-out: Titer Reduction Assay EC50. How it is done:
as §1, §2

Consider `N#Cc1ccc(Cn2nc(COc3ccccc3)c3c(N)ncnc32)cc1` [Compound 15, 4-((4-Amino-3-(phenoxymethyl)-1H-pyrazolo[3,4-d]pyrimidin-1-yl)methyl)benzonitrile], for which the inhibition at 10 µM with luciferase reporter ZIKV came out at 37%. Further, the viability at 3 days, 10 µM in data set [1] came out at 99%.

As to `Cc1ccc(OCc2nn(Cc3ccc([N+](=O)[O-])cc3)c3ncnc(N)c23)cc1` [Compound 28, 1-(4-Nitrobenzyl)-3-((p-tolyloxy)methyl)-1H-pyrazolo[3,4-d]pyrimidin-4-amine], the inhibition at 8.5 µM in the data set with ZIKV came to 34%. Besides, the inhibition at 10 µM in the data set with luciferase reporter ZIKV came to 65%. For the same compound, the viability at 3 days, 10 µM in data set [1] was 85%.

Turning to `Nc1cc(Cn2nc(COc3ccccc3)c3c(N)ncnc32)ccn1` [Compound 22, 1-((2-Aminopyridin-4-yl)methyl)-3-(phenoxymethyl)-1H-pyrazolo[3,4-d]pyrimidin-4-amine], the inhibition at 10 µM with luciferase reporter ZIKV was 67%. In addition, the viability at 3 days, 10 µM in data set [1] worked out at 36%.

As for `Nc1ncnc2c1c(COc1ccccc1)cn2Cc1ccc([N+](=O)[O-])cc1` [Compound 5, 7-(4-Nitrobenzyl)-5-(phenoxymethyl)-7H-pyrrolo[2,3-d]pyrimidin-4-amine], in the data set on ZIKV, the inhibition at 8.5 µM was determined as 94% and the pEC50 was 5.37. Besides, the inhibition at 10 µM with luciferase reporter ZIKV stood at 62%. For the same compound, in data set [1], the viability at 3 days, 10 µM was 82% and the CC50 at 3 days was 58 µM.

Turning to `Cc1ccccc1OCc1nn(Cc2ccc([N+](=O)[O-])cc2)c2ncnc(N)c12` [Compound 26, 1-(4-Nitrobenzyl)-3-((o-tolyloxy)methyl)-1H-pyrazolo[3,4-d]pyrimidin-4-amine], in the data set with luciferase reporter ZIKV, the inhibition at 10 µM came out at 60%. Besides, in data set [1], the viability at 3 days, 10 µM stood at 77%.

With `Nc1ncnc2c1c(COc1cccc(Cl)c1)nn2Cc1ccc([N+](=O)[O-])cc1` [Compound 30, 3-((3-Chlorophenoxy)methyl)-1-(4-nitrobenzyl)-1H-pyrazolo[3,4-d]pyrimidin-4-amine], the inhibition at 8.5 µM in the data set with ZIKV was 11%. Also, the inhibition at 10 µM in the data set on luciferase reporter ZIKV amounted to 52%. Also, the viability at 3 days, 10 µM in data set [1] is 93%.

For the compound `Nc1ccc(Cn2nc(COc3ccccc3)c3c(N)ncnc32)cc1` [Compound 12, 1-(4-Aminobenzyl)-3-(phenoxymethyl)-1H-pyrazolo[3,4-d]pyrimidin-4-pmine], the inhibition at 10 µM in the data set with luciferase reporter ZIKV was 0%. Also, in data set [1], the viability at 3 days, 10 µM came to 95%.

In the case of `Nc1ncnc2c1c(COc1ccccc1)nn2Cc1ccnc(Cl)c1` [Compound 20, 1-((2-Chloropyridin-4-yl)methyl)-3-(phenoxymethyl)-1H-pyrazolo[3,4-d]pyrimidin-4-amine], the inhibition at 10 µM in the data set on luciferase reporter ZIKV was 88%. Moreover, in data set [1], the viability at 3 days, 10 µM was 39%.

For `Nc1ccccc1Cn1nc(COc2ccccc2)c2c(N)ncnc21` [Compound 10, 1-(2-Aminobenzyl)-3-(phenoxymethyl)-1H-pyrazolo[3,4-d]pyrimidin-4-amine], in the data set with luciferase reporter ZIKV, the inhibition at 10 µM is 0%. Also, in data set [1], the viability at 3 days, 10 µM turned out to be 99%.

`Cc1cccc(OCc2nn(Cc3ccc([N+](=O)[O-])cc3)c3ncnc(N)c23)c1` [Compound 27, 1-(4-Nitrobenzyl)-3-((m-tolyloxy)methyl)-1H-pyrazolo[3,4-d]pyrimidin-4-amine]: the inhibition at 8.5 µM with ZIKV came to 53%. The inhibition at 10 µM in the data set on luciferase reporter ZIKV was 71%. For the same compound, the viability at 3 days, 10 µM in data set [1] was 82%.

Turning to `NC(=O)c1ccc(Cn2nc(COc3ccccc3)c3c(N)ncnc32)cc1` [Compound 19, 4-((4-Amino-3-(phenoxymethyl)-1H-pyrazolo[3,4-d]pyrimidin-1-yl)methyl)benzamide], in the data set on ZIKV, the inhibition at 8.5 µM worked out at 22%. Moreover, in the data set with luciferase reporter ZIKV, the inhibition at 10 µM amounted to 63%. Besides, in data set [1], the viability at 3 days, 10 µM is 77%.

For the compound `Nc1ncnc2c1c(COc1ccccc1)nn2Cc1ccccc1[N+](=O)[O-]` [Compound 8, 1-(2-Nitrobenzyl)-3-(phenoxymethyl)-1H-pyrazolo[3,4-d]pyrimidin-4-amine], the inhibition at 10 µM in the data set on luciferase reporter ZIKV is 9%. For the same compound, the viability at 3 days, 10 µM in data set [1] amounted to 103%.

Consider `Nc1ncnc2c1c(COc1ccccc1)nn2Cc1ccccc1` [Compound 7, 1-Benzyl-3-(phenoxymethyl)-1H-pyrazolo[3,4-d]pyrimidin-4-amine], for which, in the data set on luciferase reporter ZIKV, the inhibition at 10 µM is 0%. In addition, the viability at 3 days, 10 µM in data set [1] was 99%.

On to `Nc1ncnc2c1c(COc1ccccc1)nn2Cc1cccc([N+](=O)[O-])c1` [Compound 9, 1-(3-Nitrobenzyl)-3-(phenoxymethyl)-1H-pyrazolo[3,4-d]pyrimidin-4-amine], for which, in the data set with luciferase reporter ZIKV, the inhibition at 10 µM was determined as 90%. For the same compound, the viability at 3 days, 10 µM in data set [1] is 37%.

`Nc1ncnc2c1c(COc1ccc(Cl)cc1)nn2Cc1ccc([N+](=O)[O-])cc1` [Compound 31, 3-((4-Chlorophenoxy)methyl)-1-(4-nitrobenzyl)-1H-pyrazolo[3,4-d]pyrimidin-4-amine]: the inhibition at 8.5 µM in the data set with ZIKV worked out at 40%. The inhibition at 10 µM with luciferase reporter ZIKV amounted to 60%. Further, the viability at 3 days, 10 µM in data set [1] came out at 94%.

Turning to `COC(=O)c1cccc(Cn2nc(COc3ccccc3)c3c(N)ncnc32)c1` [Compound 17, Methyl 3-((4-Amino-3-(phenoxymethyl)-1H-pyrazolo[3,4-d]pyrimidin-1-yl)methyl)benzoate], in the data set with luciferase reporter ZIKV, the inhibition at 10 µM amounted to 88%. Besides, the viability at 3 days, 10 µM in data set [1] was 38%.

For the compound `Nc1cccc(Cn2nc(COc3ccccc3)c3c(N)ncnc32)c1` [Compound 11, 1-(3-Aminobenzyl)-3-(phenoxymethyl)-1H-pyrazolo[3,4-d]pyrimidin-4-amine], the inhibition at 10 µM in the data set with luciferase reporter ZIKV was 0%. Further, the viability at 3 days, 10 µM in data set [1] was 89%.

For `Nc1ncnc2c1c(COc1ccccc1)nn2Cc1ccc(C(F)(F)F)cc1` [Compound 13, 3-(Phenoxymethyl)-1-(4-(trifluoromethyl)benzyl)-1H-pyrazolo[3,4-d]pyrimidin-4-amine], in the data set with ZIKV, the inhibition at 8.5 µM turned out to be 73% and the pEC50 is 5.19. The inhibition at 10 µM with luciferase reporter ZIKV amounted to 68%. Also, in data set [1], the viability at 3 days, 10 µM is 86% and the CC50 at 3 days was > 100 µM.

With `Nc1ncnc2c1c(COc1ccccc1)nn2Cc1ccc([N+](=O)[O-])cc1` [Compound 6, 1-(4-Nitrobenzyl)-3-(phenoxymethyl)-1H-pyrazolo[3,4-d]pyrimidin-4-amine], in the data set with ZIKV, the inhibition at 8.5 µM was determined as 65% and the negative logarithm of the EC50 (pEC50) is 5.29. Also, the inhibition at 10 µM in the data set on luciferase reporter ZIKV was 65%. Besides, in data set [1], the viability at 3 days, 10 µM came out at 82% and the half-maximal cytotoxic concentration (CC50) at 3 days was 39 µM.

For the compound `Nc1ncnc2c1c(COc1ccccc1Cl)nn2Cc1ccc([N+](=O)[O-])cc1` [Compound 29, 3-((2-Chlorophenoxy)methyl)-1-(4-nitrobenzyl)-1H-pyrazolo[3,4-d]pyrimidin-4-amine], the inhibition at 10 µM in the data set with luciferase reporter ZIKV amounted to 34%. In data set [1], the viability at 3 days, 10 µM was 94%.

In the case of `CC(C)(C)OC(=O)Nc1ccc(Cn2nc(COc3ccccc3)c3c(N)ncnc32)cn1` [Compound 25, Tert-Butyl (5-((4-Amino-3-(phenoxymethyl)-1H-pyrazolo[3,4-d]pyrimidin-1-yl)methyl)pyridin-2-yl)carbamate], the inhibition at 10 µM in the data set on luciferase reporter ZIKV was determined as 68%. In data set [1], the viability at 3 days, 10 µM turned out to be 40%.

For the compound `COC(=O)c1ccc(Cn2nc(COc3ccccc3)c3c(N)ncnc32)cc1` [Compound 18, Methyl 4-((4-amino-3-(phenoxymethyl)-1H-pyrazolo[3,4-d]pyrimidin-1-yl)methyl)benzoate], the inhibition at 10 µM in the data set with luciferase reporter ZIKV came out at 6%. Moreover, the viability at 3 days, 10 µM in data set [1] was 95%.

On to `Nc1ncnc2c1c(CNc1ccccc1)cn2Cc1ccc([N+](=O)[O-])cc1` [Compound 4, 7-(4-Nitrobenzyl)-5-((phenylamino)methyl)-7H-pyrrolo[2,3-d]pyrimidin-4-amine], for which the inhibition at 10 µM with luciferase reporter ZIKV came to 91%. For the same compound, the viability at 3 days, 10 µM in data set [1] stood at 40%.

For the compound `COC(=O)c1ccccc1Cn1nc(COc2ccccc2)c2c(N)ncnc21` [Compound 16, Methyl 2-((4-Amino-3-(phenoxymethyl)-1H-pyrazolo[3,4-d]pyrimidin-1-yl)methyl)benzoate], the inhibition at 10 µM with luciferase reporter ZIKV was determined as 0%. For the same compound, the viability at 3 days, 10 µM in data set [1] came out at 95%.

Take `CC(C)(C)OC(=O)Nc1cc(Cn2nc(COc3ccccc3)c3c(N)ncnc32)ccn1` [Compound 24, Tert-Butyl (4-((4-Amino-3-(phenoxymethyl)-1H-pyrazolo[3,4-d]pyrimidin-1-yl)methyl)pyridin-2-yl)carbamate]: in the data set on luciferase reporter ZIKV, the inhibition at 10 µM was 62%. For the same compound, the viability at 3 days, 10 µM in data set [1] is 36%.
